From the NIST ThermoML archive (doi:10.1016/j.jct.2012.03.003)

Experiment: xn = mol fraction of the nth substance listed
Details: Liquid, Vibrating tube method

COc1cc2c(cc1O)CC1c3c(cc(O)c(OC)c3-2)CCN1C (stereo not given) [boldine] + CCCO
Details	mass density [kg/m3]
323.11 K, 16000 kPa, x1 = 0.0112	811.88
323.11 K, 16000 kPa, x1 = 0.0142	816.47
323.11 K, 17000 kPa, x1 = 0.0112	812.65
323.11 K, 17000 kPa, x1 = 0.0142	817.24
323.11 K, 18000 kPa, x1 = 0.0112	813.42
323.11 K, 18000 kPa, x1 = 0.0142	818
323.11 K, 19000 kPa, x1 = 0.0112	814.16
323.11 K, 19000 kPa, x1 = 0.0142	818.74
323.11 K, 20000 kPa, x1 = 0.0112	814.92
323.11 K, 20000 kPa, x1 = 0.0142	819.49
323.12 K, 1000 kPa, x1 = 0.0077	792.79
323.12 K, 2000 kPa, x1 = 0.0077	793.61
323.12 K, 3000 kPa, x1 = 0.0077	794.44
323.12 K, 4000 kPa, x1 = 0.0077	795.28
323.12 K, 5000 kPa, x1 = 0.0077	796.12
323.12 K, 6000 kPa, x1 = 0.0077	796.97
323.12 K, 7000 kPa, x1 = 0.0077	797.82
323.12 K, 8000 kPa, x1 = 0.0077	798.67
323.12 K, 9000 kPa, x1 = 0.0077	799.51
323.12 K, 10000 kPa, x1 = 0.0077	800.35
323.12 K, 11000 kPa, x1 = 0.0077	801.2
323.12 K, 12000 kPa, x1 = 0.0077	802.03
323.12 K, 13000 kPa, x1 = 0.0077	802.85
323.12 K, 14000 kPa, x1 = 0.0077	803.66
323.12 K, 15000 kPa, x1 = 0.0077	804.47
323.12 K, 16000 kPa, x1 = 0.0077	805.27
323.12 K, 17000 kPa, x1 = 0.0077	806.04
323.12 K, 18000 kPa, x1 = 0.0077	806.81
323.12 K, 19000 kPa, x1 = 0.0077	807.57
323.12 K, 20000 kPa, x1 = 0.0077	808.3
323.14 K, 1000 kPa, x1 = 0.0046	788.94
323.14 K, 2000 kPa, x1 = 0.0046	789.78
323.14 K, 3000 kPa, x1 = 0.0046	790.61
323.14 K, 4000 kPa, x1 = 0.0046	791.45
323.14 K, 5000 kPa, x1 = 0.0046	792.3
323.14 K, 6000 kPa, x1 = 0.0046	793.15
323.14 K, 7000 kPa, x1 = 0.0046	794.01
323.14 K, 8000 kPa, x1 = 0.0046	794.86
323.14 K, 9000 kPa, x1 = 0.0046	795.72
323.14 K, 10000 kPa, x1 = 0.0046	796.56
323.14 K, 11000 kPa, x1 = 0.0046	797.4
323.14 K, 12000 kPa, x1 = 0.0046	798.24
323.14 K, 13000 kPa, x1 = 0.0046	799.07
323.14 K, 14000 kPa, x1 = 0.0046	799.88
323.14 K, 15000 kPa, x1 = 0.0046	800.71
323.14 K, 16000 kPa, x1 = 0.0046	801.5
323.14 K, 17000 kPa, x1 = 0.0046	802.28
323.14 K, 18000 kPa, x1 = 0.0046	803.06
323.14 K, 19000 kPa, x1 = 0.0046	803.81
323.14 K, 20000 kPa, x1 = 0.0046	804.56
333.04 K, 1000 kPa, x1 = 0.0018	774.01
333.04 K, 1000 kPa, x1 = 0.0077	784.16
333.04 K, 1000 kPa, x1 = 0.0112	790.89
333.04 K, 1000 kPa, x1 = 0.0142	795.51
333.04 K, 2000 kPa, x1 = 0.0018	774.92
333.04 K, 2000 kPa, x1 = 0.0077	785.05
333.04 K, 2000 kPa, x1 = 0.0112	791.78
333.04 K, 2000 kPa, x1 = 0.0142	796.38
333.04 K, 3000 kPa, x1 = 0.0018	775.82
333.04 K, 3000 kPa, x1 = 0.0077	785.95
333.04 K, 3000 kPa, x1 = 0.0112	792.66
333.04 K, 3000 kPa, x1 = 0.0142	797.27
333.04 K, 4000 kPa, x1 = 0.0018	776.73
333.04 K, 4000 kPa, x1 = 0.0077	786.85
333.04 K, 4000 kPa, x1 = 0.0112	793.55
333.04 K, 4000 kPa, x1 = 0.0142	798.15
333.04 K, 5000 kPa, x1 = 0.0018	777.64
333.04 K, 5000 kPa, x1 = 0.0077	787.74
333.04 K, 5000 kPa, x1 = 0.0112	794.46
333.04 K, 5000 kPa, x1 = 0.0142	799.05
333.04 K, 6000 kPa, x1 = 0.0018	778.55
333.04 K, 6000 kPa, x1 = 0.0077	788.65
333.04 K, 6000 kPa, x1 = 0.0112	795.35
333.04 K, 6000 kPa, x1 = 0.0142	799.92
333.04 K, 7000 kPa, x1 = 0.0018	779.47
333.04 K, 7000 kPa, x1 = 0.0077	789.55
333.04 K, 7000 kPa, x1 = 0.0112	796.25
333.04 K, 7000 kPa, x1 = 0.0142	800.8
333.04 K, 8000 kPa, x1 = 0.0018	780.38
333.04 K, 8000 kPa, x1 = 0.0077	790.45
333.04 K, 8000 kPa, x1 = 0.0112	797.14
333.04 K, 8000 kPa, x1 = 0.0142	801.7
333.04 K, 9000 kPa, x1 = 0.0018	781.29
333.04 K, 9000 kPa, x1 = 0.0077	791.35
333.04 K, 9000 kPa, x1 = 0.0112	798.03
333.04 K, 9000 kPa, x1 = 0.0142	802.57
333.04 K, 10000 kPa, x1 = 0.0018	782.18
333.04 K, 10000 kPa, x1 = 0.0077	792.22
333.04 K, 10000 kPa, x1 = 0.0112	798.91
333.04 K, 10000 kPa, x1 = 0.0142	803.44
333.04 K, 11000 kPa, x1 = 0.0018	783.07
333.04 K, 11000 kPa, x1 = 0.0077	793.11
333.04 K, 11000 kPa, x1 = 0.0112	799.78
333.04 K, 11000 kPa, x1 = 0.0142	804.31
333.04 K, 12000 kPa, x1 = 0.0018	783.97
333.04 K, 12000 kPa, x1 = 0.0077	793.99
333.04 K, 12000 kPa, x1 = 0.0112	800.64
333.04 K, 12000 kPa, x1 = 0.0142	805.16
333.04 K, 13000 kPa, x1 = 0.0018	784.84
333.04 K, 13000 kPa, x1 = 0.0077	794.86
333.04 K, 13000 kPa, x1 = 0.0112	801.49
333.04 K, 13000 kPa, x1 = 0.0142	806.02
333.04 K, 14000 kPa, x1 = 0.0018	785.7
333.04 K, 14000 kPa, x1 = 0.0077	795.71
333.04 K, 14000 kPa, x1 = 0.0112	802.35
333.04 K, 14000 kPa, x1 = 0.0142	806.86
333.04 K, 15000 kPa, x1 = 0.0018	786.56
333.04 K, 15000 kPa, x1 = 0.0077	796.55
333.04 K, 15000 kPa, x1 = 0.0112	803.19
333.04 K, 15000 kPa, x1 = 0.0142	807.69
333.04 K, 16000 kPa, x1 = 0.0018	787.41
333.04 K, 16000 kPa, x1 = 0.0077	797.38
333.04 K, 16000 kPa, x1 = 0.0112	804
333.04 K, 16000 kPa, x1 = 0.0142	808.51
333.04 K, 17000 kPa, x1 = 0.0018	788.23
333.04 K, 17000 kPa, x1 = 0.0077	798.2
333.04 K, 17000 kPa, x1 = 0.0112	804.81
333.04 K, 17000 kPa, x1 = 0.0142	809.32
333.04 K, 18000 kPa, x1 = 0.0018	789.05
333.04 K, 18000 kPa, x1 = 0.0077	799.02
333.04 K, 18000 kPa, x1 = 0.0112	805.61
333.04 K, 18000 kPa, x1 = 0.0142	810.12
333.04 K, 19000 kPa, x1 = 0.0018	789.86
333.04 K, 19000 kPa, x1 = 0.0077	799.81
333.04 K, 19000 kPa, x1 = 0.0112	806.39
333.04 K, 19000 kPa, x1 = 0.0142	810.91
333.04 K, 20000 kPa, x1 = 0.0018	790.65
333.04 K, 20000 kPa, x1 = 0.0077	800.56
333.04 K, 20000 kPa, x1 = 0.0112	807.16
333.04 K, 20000 kPa, x1 = 0.0142	811.68
333.07 K, 1000 kPa, x1 = 0.0046	780.3
333.07 K, 2000 kPa, x1 = 0.0046	781.23
333.07 K, 3000 kPa, x1 = 0.0046	782.1
333.07 K, 4000 kPa, x1 = 0.0046	783.02
333.07 K, 5000 kPa, x1 = 0.0046	783.92
333.07 K, 6000 kPa, x1 = 0.0046	784.83
333.07 K, 7000 kPa, x1 = 0.0046	785.74
333.07 K, 8000 kPa, x1 = 0.0046	786.64
333.07 K, 9000 kPa, x1 = 0.0046	787.54
333.07 K, 10000 kPa, x1 = 0.0046	788.44
333.07 K, 11000 kPa, x1 = 0.0046	789.33
333.07 K, 12000 kPa, x1 = 0.0046	790.21
333.07 K, 13000 kPa, x1 = 0.0046	791.08
333.07 K, 14000 kPa, x1 = 0.0046	791.94
333.07 K, 15000 kPa, x1 = 0.0046	792.79
333.07 K, 16000 kPa, x1 = 0.0046	793.62
333.07 K, 17000 kPa, x1 = 0.0046	794.45
333.07 K, 18000 kPa, x1 = 0.0046	795.27
333.07 K, 19000 kPa, x1 = 0.0046	796.06
333.07 K, 20000 kPa, x1 = 0.0046	796.84
